Results reported in patent US20100022542A1, “COMPOUNDS EXHIBITING THROMBOPOIETIN RECEPTOR AGONISM” (Shionogi & Co., Ltd., priority 2000, published 2010).

What follows are molecules tested against T1, human TPO receptor (hTPOR) (Homo sapiens, UniProt P40238) (assay: Proliferation of TPO dependent BaF/hTPOR cells, WST-1, thrombopoietic activity ED50 (Test Example 3)). Conditions: 20 h incubation then WST-1 4 h, absorbance at 450 nm.
T1 construct: expressed in transfected cells; host or cells: BaF-B03 (murine IL-3 dependent cell line)
T1 sequence (P40238 26-635): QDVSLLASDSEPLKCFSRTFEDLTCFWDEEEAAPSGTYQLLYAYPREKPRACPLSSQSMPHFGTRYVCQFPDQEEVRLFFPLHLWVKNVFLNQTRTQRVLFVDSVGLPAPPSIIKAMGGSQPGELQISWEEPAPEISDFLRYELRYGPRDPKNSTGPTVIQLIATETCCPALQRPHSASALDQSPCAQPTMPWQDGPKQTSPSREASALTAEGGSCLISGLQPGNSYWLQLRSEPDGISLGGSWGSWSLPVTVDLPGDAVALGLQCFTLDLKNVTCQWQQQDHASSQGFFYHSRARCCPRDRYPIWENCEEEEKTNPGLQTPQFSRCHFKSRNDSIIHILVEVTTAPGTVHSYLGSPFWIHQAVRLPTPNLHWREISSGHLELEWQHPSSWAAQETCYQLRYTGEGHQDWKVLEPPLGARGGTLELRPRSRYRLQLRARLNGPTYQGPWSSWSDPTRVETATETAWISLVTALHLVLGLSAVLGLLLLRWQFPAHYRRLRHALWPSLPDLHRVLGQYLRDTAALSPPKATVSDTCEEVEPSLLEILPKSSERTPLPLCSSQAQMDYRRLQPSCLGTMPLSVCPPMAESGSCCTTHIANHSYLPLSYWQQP
Format: cell-based
Excerpt: FIG. 2: The chart represents proliferation of the human TPO dependent cells bearing human TPO receptors by the present invention compound, wherein the x-axis is concentration of the present invention compound, and the y-axis is the absorbance as an indicator of cell proliferation. Open circles indicate a response of human TPO, and closed circles indicate a response of the compound (B-1).
The TPO dependent BaF/hTPOR cell line which was established by introducing human TPO receptor (hTPOR) into BaF-B03 cells according to Collins et al (J. Cell. Physiol., 137:293-298 (1988)) was used to test the thrombopoietic activity of the present compound. The DNA sequences and encoded peptide sequences for human hTPOR have been described by Vigon et al (Proc. Natl. Acad. Sci. USA, 89:5640-5644 (1992)). TPO dose not have any ability to support proliferation of interleukin-3 dependent parental cell line BaF-B03. BAF/hTPOR cells were maintained in RPMI medium and WEHI-3B conditioned medium as a source of murine interleukin-3 (IL-3). These cells were washed and resuspended in RPMI medium without a source of murine IL-3 and seeded into each well of 96-well microtiter plates at a density of 5×10^4 cells per well in the absence or presence of various concentration of hTPO or the present compound. After incubation at 37° C. for 20 hours in the 5% CO2 incubator, 10% WST-1 reagent (Takara Biomedicals, Japan) was added to each wells and the cells were further incubated for 4 hours. Effect of the present compound on the growth of BAF/mTPOR cell line which was established by introducing murine TPO receptor (mTPOR) into BAF-B03 cells is shown in FIG. 3. Table 8 exemplifies the ED50 for tested compounds of the present invention, wherein the ED50 is the half concentration of the concentration showing the maximum thrombopoietic activity.

EC50	SMILES
707 nM	C/C(=C\c1ccc(C(=O)Nc2nc(-c3ccc(Cl)c(Cl)c3)cs2)cc1)C(=O)NCCN(C)C [Compound B-27]
33.5 nM	CCOC(=O)C(Cl)=Cc1ccc(C(=O)Nc2nc(-c3ccc(Cl)c(Cl)c3)cs2)cc1 [Compound A-11]
263 nM	O=C(O)C(F)=Cc1ccc(C(=O)Nc2nc(-c3ccc(C(F)(F)F)cc3)cs2)cc1 [Compound A-46]
144 nM	CC(=Cc1ccc(C(=O)Nc2nc(-c3ccc(Cl)c(Cl)c3)cs2)cc1)S(=O)(=O)NC(C)(C)C [Compound F-2]
512 nM	O=C(O)/C(Cl)=C/c1ccc(C(=O)Nc2nc(-c3ccc(-c4ccccc4)cc3)cs2)cc1 [Compound A-47]
23 nM	CCCCCc1cccc(-c2csc(NC(=O)c3ccc(/C=C(\Cl)C(=O)O)cc3)n2)c1F [Compound A-84]
110 nM	O=C(O)/C(Cl)=C/c1ccc(C(=O)Nc2nc(-c3cc(F)c(F)c(F)c3F)cs2)cc1 [Compound A-77]
497 nM	O=C(O)/C(Cl)=C/c1ccc(C(=O)Nc2nc(-c3cc(F)ccc3F)cs2)cc1 [Compound A-58]
50 nM	O=C(O)/C(Cl)=C/c1ccc(C(=O)Nc2nc(-c3cccc(C(F)(F)F)c3)cs2)cc1 [Compound A-42]
96 nM	CCOC(=O)/C(Cl)=C/c1ccc(C(=O)Nc2nc(-c3ccc(F)c(F)c3)cs2)cc1 [Compound A-35]
360 nM	CC(c1ccc(C(=O)Nc2nc(-c3ccc(Cl)c(Cl)c3)cs2)cc1)C(Cl)C(=O)O (centres unmarked) [Compound G-8]
28 nM	O=C(O)/C(Cl)=C/c1ccc(C(=O)Nc2nc(-c3cc(C(F)(F)F)cc(C(F)(F)F)c3)cs2)cc1 [Compound A-65]
311 nM	Cc1sc(NC(=O)c2ccc(/C=C(\Cl)C(=O)O)cc2)nc1-c1ccc(F)cc1F [Compound J-11]
205 nM	O=C(O)/C(Cl)=C/c1ccc(C(=O)Nc2nc(-c3ccc(OC(F)(F)F)cc3)cs2)cc1 [Compound A-76]
922 nM	O=C(O)C(Br)=Cc1ccc(C(=O)Nc2nc(-c3ccc(Cl)c(Cl)c3)cs2)cc1 [Compound C-4]
261 nM	COC(=O)CCc1ccc(C(=O)Nc2nc(-c3ccc(Cl)c(Cl)c3)cs2)cc1 [Compound G-1]
257 nM	NC(=O)/C=C/c1ccc(C(=O)Nc2nc(-c3ccc(Cl)c(Cl)c3)cs2)cc1 [Compound B-2]
256 nM	COc1cc(C(=O)Nc2nc(-c3ccc(Cl)c(Cl)c3)cs2)ccc1C#CC(=O)O [Compound L-4]
303 nM	CC(=O)NNC(=O)/C(C)=C/c1ccc(C(=O)Nc2nc(-c3ccc(Cl)c(Cl)c3)cs2)cc1 [Compound B-43]
204 nM	CC(C)Cc1ccc(-c2csc(NC(=O)c3ccc(/C=C(\Cl)C(=O)O)cc3)n2)cc1 [Compound A-64]

EC50	SMILES
113 nM	O=C(O)/C(Cl)=C/c1ccc(C(=O)Nc2nc(-c3ccccc3F)cs2)cc1 [Compound A-50]
208 nM	COC(=O)C#Cc1ccc(C(=O)Nc2nc(-c3ccc(Cl)c(Cl)c3)cs2)cc1 [Compound L-1]
76 nM	O=C(O)/C(Cl)=C/c1ccc(C(=O)Nc2nc(-c3cccc(Cl)c3Cl)cs2)cc1 [Compound A-91]
400 nM	CCOC(=O)C(F)Cc1ccc(C(=O)Nc2nc(-c3ccc(Cl)c(Cl)c3)cs2)cc1 (centres unmarked) [Compound G-7]
163 nM	C/C(=C\c1ccc(C(=O)Nc2nc(-c3ccc(Cl)c(Cl)c3)cs2)cc1)C(=O)NC1CC1 [Compound B-36]
425 nM	CC/C(=C\c1ccc(C(=O)Nc2nc(-c3ccc(Cl)c(Cl)c3)cs2)cc1)C(=O)NCc1ccccc1 [Compound B-20]
425 nM	COc1cccc(-c2csc(NC(=O)c3ccc(/C=C(\Cl)C(=O)O)cc3)n2)c1 [Compound A-52]
37 nM	CCCCc1cccc(-c2csc(NC(=O)c3ccc(/C=C(\Cl)C(=O)O)cc3)n2)c1 [Compound A-55]
73 nM	O=C(O)/C(Cl)=C/c1ccc(C(=O)Nc2nc(-c3ccc(F)c(Cl)c3)cs2)cc1 [Compound A-75]
288 nM	C/C(=C\c1ccc(C(=O)Nc2nc(-c3ccc(F)cc3)cs2)cc1)C(=O)O [Compound A-24]
124 nM	O=C(O)/C=C/c1ccc(C(=O)Nc2nc(-c3ccc(Cl)c(Cl)c3)cs2)cc1 [Compound A-4]
177 nM	C/C(=C\c1ccc(C(=O)Nc2nc(-c3ccc(Cl)c(Cl)c3)cs2)cc1)C(=O)Nc1ccccc1 [Compound B-30]
201 nM	C#CCNC(=O)/C(C)=C/c1ccc(C(=O)Nc2nc(-c3ccc(Cl)c(Cl)c3)cs2)cc1 [Compound B-40]
40 nM	O=C(O)/C(Cl)=C/c1ccc(C(=O)Nc2nc(-c3cccc(OC(F)(F)F)c3)cs2)cc1 [Compound A-32]
66 nM	O=C(O)/C(Cl)=C/c1ccc(C(=O)Nc2nc(-c3cccc(-c4ccccc4)c3F)cs2)cc1 [Compound A-80]
207 nM	COc1ccc(-c2csc(NC(=O)c3ccc(/C=C(\Cl)C(=O)O)cc3)n2)c(F)c1 [Compound A-61]
17 nM	O=C(O)/C(Cl)=C/c1ccc(C(=O)Nc2nc(-c3ccc(Cl)c(Cl)c3)cs2)cc1 [Compound A-14]
89 nM	Cc1ccc(-c2csc(NC(=O)c3ccc(/C=C(\Cl)C(=O)O)cc3)n2)c(F)c1 [Compound A-70]
150 nM	CCNC(=O)/C(=C/c1ccc(C(=O)Nc2nc(-c3ccc(Cl)c(Cl)c3)cs2)cc1)CC [Compound B-19]
99 nM	C/C(=C\c1ccc(C(=O)Nc2nc(-c3cccc(C(F)(F)F)c3)cs2)cc1)C(=O)O [Compound A-28]

EC50	SMILES
289 nM	CCOC(=O)/C(Cl)=C/c1ccc(C(=O)Nc2nc(-c3cccc(F)c3)cs2)cc1 [Compound A-29]
227 nM	O=C(O)/C(F)=C/c1ccc(C(=O)Nc2nc(-c3cccc(C(F)(F)F)c3)cs2)cc1 [Compound A-44]
116 nM	CCCCCc1ccc(-c2csc(NC(=O)c3ccc(/C=C(\Cl)C(=O)O)cc3)n2)cc1 [Compound A-49]
610 nM	C/C(=C\c1ccc(C(=O)Nc2nc(-c3cccc(OC(F)(F)F)c3)cs2)cc1)C(=O)O [Compound A-20]
59 nM	CCCNC(=O)C(C)=Cc1ccc(C(=O)Nc2nc(-c3ccc(Cl)c(Cl)c3)cs2)cc1 [Compound B-7]
77 nM	Cc1cccc(-c2csc(NC(=O)c3ccc(/C=C(\Cl)C(=O)O)cc3)n2)c1F [Compound A-83]
193 nM	CCOC(=O)/C(C)=C/c1ccc(C(=O)Nc2nc(-c3cccc(C(F)(F)F)c3)cs2)cc1 [Compound A-27]
236 nM	COCCNC(=O)/C(C)=C/c1ccc(C(=O)Nc2nc(-c3ccc(Cl)c(Cl)c3)cs2)cc1 [Compound B-42]
132 nM	C/C(=C\c1ccc(C(=O)Nc2nc(-c3cccc(F)c3)cs2)cc1)C(=O)O [Compound A-18]
82 nM	C/C(=C\c1ccc(C(=O)Nc2nc(-c3ccc(Cl)c(Cl)c3)cs2)cc1)C(=O)NCc1ccccc1 [Compound B-9]
211 nM	Cn1cc(-c2csc(NC(=O)c3ccc(/C=C(\Cl)C(=O)O)cc3)n2)c2ccccc21 [Compound A-66]
101 nM	O=C(O)/C(Cl)=C/c1ccc(C(=O)Nc2nc(-c3cc(F)c(F)cc3F)cs2)cc1 [Compound A-62]
372 nM	C/C(=C\c1ccc(C(=O)Nc2nc(-c3ccc(Cl)c(Cl)c3)cs2)cc1)C(=O)NC(C)c1ccccc1 (centres unmarked) [Compound B-33]
150 nM	CCOC(=O)/C(C)=C/c1ccc(C(=O)Nc2nc(-c3ccc(C(F)(F)F)cc3)cs2)cc1 [Compound A-25]
66 nM	O=C(O)/C(Cl)=C/c1ccc(C(=O)Nc2nc(-c3ccc(F)cc3F)cs2)cc1 [Compound A-56]
203 nM	O=C(O)C(F)=Cc1ccc(C(=O)Nc2nc(-c3cccc(OC(F)(F)F)c3)cs2)cc1 [Compound A-45]
346 nM	CNC(=O)/C(C)=C/c1ccc(C(=O)Nc2nc(-c3ccc(F)c(F)c3)cs2)cc1 [Compound B-26]
213 nM	CONC(=O)/C(C)=C/c1ccc(C(=O)Nc2nc(-c3ccc(Cl)c(Cl)c3)cs2)cc1 [Compound B-46]
197 nM	C/C(=C\c1ccc(C(=O)Nc2nc(-c3ccc(Cl)c(Cl)c3)cs2)cc1)C(=O)NCc1cccs1 [Compound B-15]
